Measured values from patent publication US7217511B2, “Methods of increasing antibiotic production in Streptomyces by deletion of the scbA gene” (Plant Bioscience Limited, priority 2000, dated 2007).

Key:
[1] = tested on: ScbR
[2] = tested on: S. coelicolor M751 (ΔscbA)
[3] = tested on: S. coelicolor M145
Description: (§1) Bioassay using spore suspension of M145(top), M751(left bottom) and M752(right bottom) as indicator strain and spotted with 1 μg of SCB1. The plates were incubated at 30° C. for 20 h (left panel) or 40 h (right panel).
(§2) γ-butyrolactones were isolated from liquid or solid media by extracting the culture supernant or the agar with ethylacetate. The ethylacetate was evaporated and the sample was resuspended in 100% methanol for use in a bioassay or for HPLC analysis. Bioassay and HPLC analysis were conducted as described previously (Takano et al., 2000).

[4] = tested on: S. coelicolor M751 (ΔscbA); remark: listed apart in the source
Description: as §1, §2

[5] = tested on: S. coelicolor M752 (ΔscbR)
Description: as §1, §2

ScbR, sequence (as listed by the source): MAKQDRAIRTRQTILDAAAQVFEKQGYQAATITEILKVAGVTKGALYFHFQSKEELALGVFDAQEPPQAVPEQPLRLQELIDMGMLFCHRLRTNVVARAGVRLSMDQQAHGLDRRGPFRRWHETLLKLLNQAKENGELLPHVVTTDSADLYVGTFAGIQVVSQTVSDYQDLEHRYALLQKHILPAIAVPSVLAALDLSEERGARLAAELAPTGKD

| Compound | Formation of the DNA-protein complex (DNA-binding activity of ScbR) [1] | Level of scbR transcription [2] | scbA transcription [2] | Response to exogenous SCB1 (antibiotic production in lawn) [3] | Effect of high concentrations of SCB1 on antibiotic production (lighter halo around the point of application) [4] | Response to exogenous SCB1 (antibiotic production in lawn) [5] |
| --- | --- | --- | --- | --- | --- | --- |
| 2-isocaryloyl-3R-hydroxymethyl-γ-butyrolactone [A-factor] | failed to inhibit | – | – | – | – | – |
| CC(C)CCCC[C@@H](O)[C@@H]1C(=O)OC[C@H]1CO [SCB1] | – | marked increase | not restored | responded in the expected way | inhibitory effect | did not respond |
